Data as given in US12396977B2, “Composition for treating degenerative brain diseases, containing 2-pentylfuran as active ingredient” (DAEGU GYEONGBUK INSTITUTE OF SCIENCE AND TECHNOLOGY, priority 2019, dated 2025).
“Also recorded” adds a separate entry of the source.

Assays:
primary microglia [1] = assay: cAMP ELISA in primary microglia; type: cell-based, mouse; conditions: 2-PF 0, 100, 500 μM
Method: Primary microglia were inoculated into 48 well plates (2×10^5 cells/well) and treated with 30 μM forskolin (#F3917, Sigma Aldrich), or 2-PF (10, 100, 500 μM) for 30 minutes. In order to confirm the effect of an inhibitor, 1 mM SQ22536 (#17318-31-9; Calbiochem) was first pretreated for 30 minutes. The cells were lysed in a solution of 0.1 M of HCl with 1% Triton X 100 for 10 minutes, and the lysate was centrifuged at 600×g for 2 minutes. The supernatant was directly used for cAMP analysis using a cAMP ELISA kit (Enzo Life Science) according to the manufacturer's protocol. The optical density at 405 nm was measured using a VersaMax microplate reader (Molecular Devices).

primary microglia [2] = assay: Fura-2/AM calcium imaging of microglia; type: cell-based, mouse; conditions: 2-PF 100, 300, 1000 μM
Method: The newly isolated microglia were placed on poly-D-lysine-coated 18-mm aperture microscope cover glasses (#0111580; Marienfeld), and after 24 hours, the microglia were cultured in a superfusion chamber for 30 minutes. The chamber contained 4 μM of Fura-2/AM (Ca^2+-sensitive fluorescent dye; #F1221; Thermo Fisher Scientific) in a 0.22 μm-filtered Ringer's solution (115 mM NaCl, 2.5 mM KCl, 1 mM CaCl2, 1.5 mM MgCl2, 4.5 mM HEPES, pH 7.4). After calcium staining culture, the chamber was placed under an inverted microscope and rinsed with Ringer's solution for 20 minutes before treatment with […]. In this case, the flow rate of the solution is 12 ml/min. Next, the primary microglia were treated with 300 μM ATP (#A2383; Sigma Aldrich) for 5 seconds. After being washed for 5 minutes, the primary microglia were treated with a 2-pentylfuran solution at a concentration of 100 μM for 5 seconds. This step was performed with a 2-pentylfuran solution at two concentrations (300 and 1000 μM). Finally, the primary microglia were treated with a 300 μM ATP solution for 5 seconds. The emitted fluorescent material was photographed using a CCD camera every 2 seconds. Pseudo-color images were converted using fractional fluorescence changes (ΔF/F, Δ[Ca^2+]i). Furthermore, these images show changes in intracellular calcium ions. […]

[3] = system: Hana3A cells expressing Olfr110; assay: Boyden chamber chemotaxis, Hana3A cells expressing Olfr110; type: cell-based; conditions: 2-PF 10, 100, 1000 uM
Method: Cell chemotaxis was measured using a multiwell Boyden chamber. More specifically, a polycarbonate filter (8 μm pore; #101-8; Neuroprobe) was coated with […] fibronectin in PBS (Sigma-Aldrich) for 2 hours, and the coated filter was placed in a Boyden chamber. In addition, the bottom side of the plate was filled with serum-free DMEM containing 2-pentylfuran or a culture supernatant. Next, microglia or Hana3A cells were transfected with an odorant receptor structure and then suspended in serum-free DMEM. Subsequently, microglia and Hana3A cells were allowed to stand at 37° C. for 4 hours and 8 hours, respectively. Cells sinking to the bottom were fixed with 4% PFA, and stained with hematoxylin for 10 minutes. Fixed cells were counted under an optical microscope in 5 randomly selected fixed […] fields (200×) using a scored eyepiece. The chemical chemotaxis index was defined as the number of migrating cells using an untreated group as a standard.

Olfr110 = biological target: T1, Olfr110 (Mus musculus, UniProt A2RT31); assay: Luciferase assay in Hana3A cells, Olfr110; type: cell-based
T1 construct: Full-length odorant receptor genes from mouse and human genomic DNA were amplified using appropriate primers; Lucy (N); Flag (N); Rho (N); expressed in transfected cells; host or cells: Hana3A cells, co-transfected with RTP1S, pCRELuc and pRL-SV40
T1 sequence (A2RT31 1-317): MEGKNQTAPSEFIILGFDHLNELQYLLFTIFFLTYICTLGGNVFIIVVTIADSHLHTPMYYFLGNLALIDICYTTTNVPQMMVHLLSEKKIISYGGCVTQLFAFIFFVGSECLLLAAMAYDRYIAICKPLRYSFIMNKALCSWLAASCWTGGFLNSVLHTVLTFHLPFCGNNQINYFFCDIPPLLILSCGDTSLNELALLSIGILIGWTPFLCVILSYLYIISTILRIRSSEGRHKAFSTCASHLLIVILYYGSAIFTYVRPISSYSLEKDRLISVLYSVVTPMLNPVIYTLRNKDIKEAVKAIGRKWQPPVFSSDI
Method: Next, Hana3A cells were transfected with RTP1S, and their location and presence on the cell membrane were confirmed as previously described (Behrens et al., 2009; Zhuang and Matsunami, 2008). Such transfection was performed using Lipofectamine 2000 (#11668-019; Thermo Fisher Scientific) according to the manufacturer's instructions. More specifically, the transfected cells were grown on a coverslip (#0101050; Marienfeld) coated with poly D lysine (10 μg/ml; #P7280; Sigma Aldrich). Next, the cells were washed with a warm PBS solution and cooled with ice for 30 minutes to block endocytosis. […] The cells were then incubated with normal horse serum (#008-000-121; Jackson ImmunoResearch) at room temperature for 1 hour. […] After being washed with PBS, the cells were treated with a Cy3-conjugated donkey anti-mouse antibody (1:1,000; #715-165-150; Jackson ImmunoResearch), an Alexa488-conjugated donkey anti-mouse antibody (1:1,000; #715-545-150; Jackson ImmunoResearch), or a Cy3-conjugated donkey anti-rabbit antibody (1:1,000; #711-165-152; Jackson ImmunoResearch) at room temperature for 1 hour. The cells were mounted with a Vectashield fluorescent mounting medium containing DAPI (#H-1200; Vector Laboratories). The expression of heterologous odorant receptors was analyzed with a confocal laser scanning microscope LSM700 and ZEN software (Zeiss).
The Dual-Glo luciferase assay system (#E2940; Promega) was used for odorant receptor ligand screening. More specifically, Hana3A cells were streaked and spread on a white polystyrene 96-well plate (#353296; BD Biosciences) one day before transfection. pCRELuc (1 μg; #219076; Agilent Technologies), pRL-SV40 (1 μg; #E2231; Promega), RTP1S (1 μg), and OR (6 μg; or Mock) vectors were transfected for 24 hours in each plate. Each plate was analyzed using Lipofectamine 2000 (#11668-019; Thermo Fisher Scientific) according to the manufacturer's protocol. Transfected cells were stimulated in CD293 medium (#11913-019; Thermo Fisher Scientific) at 37° C. for 4 hours using diluted odorants at various concentrations. The activity of luciferase was normalized by the activity of Renilla luciferase. The amount of light emitted was measured using a SpectraMax L microplate reader (Molecular Devices).

microglia = assay: Ex vivo phagocytosis of microglia in brain slices (time-lapse confocal); set-up: species or system mouse; conditions: brain slices of CX3CR1 GFP/+ mice
Method: In this experiment, in order to examine the phagocytotic action of microglia, the brain of a 9-week-old male CX3CR1^GFP/+ mouse was cut to a thickness of 150 μm using a vibratome (Leica VT1200) and then stored in an ice-cooled artificial cerebrospinal fluid (aCSF: 120 mM NaCl, […], 25 mM NaHCO3, 1.25 mM NaH2PO4, 5 mM KCl, 1 mM CaCl2, 1 mM MgSO4, […], pH7.4). Thereafter, the sliced brain was cultured for removal of cell debris. Oxygenated aCSF was pretreated in a perfusion chamber at 37° C. for 2 hours. Subsequently, before culture, the sliced brain was cultured with 500 μl of aCSF containing 9.10×10^7 microspheres ([…]; #17458; Polysciences) and covered with a custom-made nylon grid. Time lapse videos were taken at intervals of 1 minute for 92 minutes using a confocal microscope. The number of phagocytosing microglia was calculated from the images.

primary microglia [4] = assay: Active oxygen (ROS) production in primary microglia; type: cell-based, mouse
Method: Superoxide concentrations were calculated by measuring the degree of decrease in cytochrome c using a VersaMax microplate reader (Babior et al., 1973). Microglia were cultured on a 96-well plate at a concentration of 1.0×10^5 cells/well, and the microglia were activated by a 10 μM ATP solution containing 2-pentylfuran and cytochrome c, or a solution of Sup mixed with cytochalasin B (5 μM; #C66762; Sigma Aldrich). The resulting ROS concentration was measured by changes in light absorption at 550 nm at intervals of 1 minute for 25 minutes.
Active oxygen levels were measured using 2′,7′-dichlorodihydrofluorescein diacetate (DCF-DA, #D6883; Sigma Aldrich) using a method that had undergone minor modifications from the existing method. (Bae et al., 2001). More specifically, the primary microglia were treated with 10 μM DCF-DA in a 24-well plate (5.0×10^5 cells/well) […] at a temperature of 37° C. for 30 minutes. One plate was treated with 2-PF and one was not. Cells in each well were measured by a flow cytometer (FACS Accuri™ C6; BD Biosciences). MFI was measured in the same manner as described above.

mode of action at Olfr110 (Olfr110): agonist
Structure (SMILES): CCCCCc1ccco1 [2-PF, 2-pentylfuran]
cAMP concentration in primary microglia (primary microglia [1]): increased by 2-PF treatment in a concentration dependent manner | intracellular calcium ion levels (primary microglia [2]): increased according to an injection amount | mobility (chemotaxis) of Olfr110-expressing Hana3A cells [3]: increased in mobility in a concentration-dependent manner | reactivity of Olfr110 (relative luciferase activity) (Olfr110; Hana3A cells): particularly strong reactivity; also recorded: strongest reactivity | ex vivo phagocytosis activity of microglia (microglia): increased | production of active oxygen on top of Sup MOI 5 (primary microglia [4]; 500 μM 2-PF): further increased | active oxygen secretion of microglia (primary microglia [4]; 100, 300, and 500 μM): significantly increased in a concentration-dependent manner
